Laboratory results reported in patent US6387896B1, “Bicyclic oxazolidinones as antibacterial agents” (Pharmacia & Upjohn Co., priority 1999, dated 2002).
Converted amounts (≈) assume the structure as drawn.

Assays:
[1] = system: Methicillin-susceptible S. aureus UC® 9213; assay: Minimum inhibitory concentration (MIC) by agar dilution, S. aureus; format: cell-based; conditions: Staphylococcus aureus, UC9213, lowest concentration that inhibits visible growth
From the text: (§1) The oxazolidinone antibacterial agents of this invention have useful activity against a variety of organisms. The in vitro activity of compounds of this invention can be assessed by standard testing procedures such as the determination of minimum inhibitory concentration (MIC) by agar dilution as described in “Approved Standard. Methods for Dilution Antimicrobial Susceptibility Tests for Bacteria That Grow Aerobically”, 3rd. ed., published 1993 by the National Committee for Clinical Laboratory Standards, Villanova, Pa., USA. The activity of compounds of this invention against Staphylococcus aureus, Staphylococcus epidermidis, Streptococcus pneumoniae, Enterococcus faecalis, Moraxella catarrhalis and H. influenzae is shown in Table 1. No. 1 is Methicillin-susceptible S. aureus UC® 9213. No. 2 is Moraxella catarrhalis UC® 30610. Minimum inhibitory concentration: lowest concentration of drug (μg/mL) that inhibits visible growth of the organism.

[2] = system: Moraxella catarrhalis UC® 30610; assay: Minimum inhibitory concentration (MIC) by agar dilution, Moraxella catarrhalis; format: cell-based; conditions: UC30610, lowest concentration that inhibits visible growth, read-out: Minimum Inhibitory Concentration M.CAT.
From the text: as §1

Compound	MIC [1]	MIC [2]	melting point
CC(=O)NCC1CN(c2ccc3c(c2)CC(C)S3)C(=O)O1 (stereo in doubt) [Example 20, N-{[(5R)-3-(2(+)-methyl-2,3-dihydro-1-benzothien-5-yl)-2-oxo-1,3-oxazolidin-5-yl]methyl}acetamide]	4 µg/mL (≈ 13.1 µM)	16 µg/mL (≈ 52.2 µM)	–
CC(=O)NC[C@H]1CN(c2ccc3c(c2)CC(C)N3CCF)C(=O)O1 (stereo partly drawn) [Example 1, N-({(5S)-3-[1-(2-Fluoroethyl)-2-methyl-2,3-dihydro-1H-indol-5-yl]-2-oxo-1,3-oxazolidin-5-yl}methyl)acetamide]	–	–	127 to 130 °C
CC(=O)NC[C@H]1CN(c2ccc3c(c2)CC(C)N3C(=O)CO)C(=O)O1 (stereo partly drawn) [Example 2, N-{[(5S)-3-(1-Glycoloyl-2-methyl-2,3-dihydro-1H-indol-5-yl)-2-oxo-1,3-oxazolidin-5-yl]methyl}acetamide]	–	–	130 to 133 °C
CC(=O)NC[C@H]1CN(c2ccc3c(c2)C[C@@H](C)N3C(=O)CO)C(=O)O1 [Example 3, N-({(5S)-3-[(2R)-1-Glycoloyl-2-methyl-2,3-dihydro-1H-indol-5-yl]-2-oxo-1,3-oxazolidin-5-yl}methyl)acetamide]	4 µg/mL (≈ 11.5 µM)	4 µg/mL (≈ 11.5 µM)	–
CC(=O)NC[C@H]1CN(c2ccc3c(c2)C[C@@H](C)N3C=O)C(=O)O1 [Example 4, N-({(5S)-3-[(2R)-1-Formyl-2-methyl-2,3-dihydro-1H-indol-5-yl]-2-oxo-1,3-oxazolidin-5-yl}methyl)acetamide]	1 µg/mL (≈ 3.15 µM)	4 µg/mL (≈ 12.6 µM)	158 to 159 °C
CCC(=O)NC[C@H]1CN(c2ccc3c(c2)C[C@@H](C)N3C=O)C(=O)O1 [Example 5, N-({(5S)-3-[(2R)-1-Formyl-2-methyl-2,3-dihydro-1H-indol-5-yl]-2-oxo-1,3-oxazolidin-5-yl}methyl)propanamide]	2 µg/mL (≈ 6.04 µM)	4 µg/mL (≈ 12.1 µM)	118 to 119 °C
CC(=S)NC[C@H]1CN(c2ccc3c(c2)C[C@@H](C)N3C=O)C(=O)O1 [Example 6, N-({(5S)-3-[(2R)-1-Formyl-2-methyl-2,3-dihydro-1H-indol-5-yl]-2-oxo-1,3-oxazolidin-5-yl}methyl)ethanethioamide]	< 0.5 µg/mL	1 µg/mL (≈ 3 µM)	95 to 96 °C
COCC(=O)N1c2ccc(N3C[C@H](CNC(C)=O)OC3=O)cc2C[C@H]1C [Example 7, N-({(5S)-3-[(2R)-1-(2-Methoxyacetyl)-2-methyl-2,3-dihydro-1H-indol-5-yl]-2-oxo-1,3-oxazolidin-5-yl}methyl)acetamide]	4 µg/mL (≈ 11.1 µM)	8 µg/mL (≈ 22.1 µM)	174 to 175 °C
CC(=O)NC[C@H]1CN(c2ccc3c(c2)C[C@@H](C)N3C(=O)COC(C)=O)C(=O)O1 [Example 8, 2-((2R)-5-{(5S)-5-[(Acetylamino)methyl]-2-oxo-1,3-oxazolidin-3-yl}-2-methyl-2,3-dihydro-1H-indol-1-yl)-2-oxoethyl acetate]	8 µg/mL	16 µg/mL	186 to 187 °C
CC(=O)NC[C@H]1CN(c2ccc3c(c2)C[C@@H](C)N3C(C)=O)C(=O)O1 [Example 9, N-({(5S)-3-[(2R)-1-Acetyl-2-methyl-2,3-dihydro-1H-indol-5-yl]-2-oxo-1,3-oxazolidin-5-yl}methyl)acetamide]	2 µg/mL (≈ 6.04 µM)	8 µg/mL (≈ 24.1 µM)	184 to 185 °C
CNC(=S)N1c2ccc(N3C[C@H](CNC(C)=O)OC3=O)cc2C[C@H]1C [Example 10, N-[((5S)-3-{(2R)-2-Methyl-1-[(methylamino)carbothioyl]-2,3-dihydro-1H-indol-5-yl}-2-oxo-1,3-oxazolidin-5-yl)methyl]acetamide]	4 µg/mL (≈ 11 µM)	8 µg/mL (≈ 22.1 µM)	109 to 111 °C
CC(=O)OCC(=O)N1c2ccc(N3C[C@H](CNC(C)=S)OC3=O)cc2C[C@H]1C [Example 11, 2-((2R)-5-{(5S)-5-[(Ethanethioylamino)methyl]-2-oxo-1,3-oxazolidin-3-yl}-2-methyl-2,3-dihydro-1H-indol-1-yl)-2-oxoethyl acetate]	1 µg/mL	4 µg/mL	–
CC(=S)NC[C@H]1CN(c2ccc3c(c2)C[C@@H](C)N3C(=O)CO)C(=O)O1 [Example 12, N-({(5S)-3-[(2R)-1-Glycoloyl-2-methyl-2,3-dihydro-1H-indol-5-yl]-2-oxo-1,3-oxazolidin-5-yl}methyl)ethanethioamide]	< 0.5 µg/mL	1 µg/mL (≈ 2.75 µM)	115 to 117 °C
CC(=O)NC[C@H]1CN(c2ccc3c(c2)CCC(C)N3C=O)C(=O)O1 (stereo partly drawn) [Example 13, N-{[(5S)-3-(1-Formyl-2-methyl-1,2,3,4-tetrahydro-6-quinolinyl)-2-oxo-1,3-oxazolidin-5-yl]methyl}acetamide]	–	–	85 to 87 °C
CC(=O)NC[C@H]1CN(c2ccc3c(c2)CC[C@@H](C)N3C=O)C(=O)O1 [Example 14, N-({(5S)-3-[(2R)-1-Formyl-2-methyl-1,2,3,4-tetrahydro-6-quinolinyl]-2-oxo-1,3-oxazolidin-5-yl}methyl)acetamide]	2 µg/mL (≈ 6.04 µM)	4 µg/mL (≈ 12.1 µM)	89 to 91 °C
CC(=S)NC[C@H]1CN(c2ccc3c(c2)CC[C@@H](C)N3C=O)C(=O)O1 [Example 15, N-({(5S)-3-[(2R)-1-Formyl-2-methyl-1,2,3,4-tetrahydro-6-quinolinyl]-2-oxo-1,3-oxazolidin-5-yl}methyl)ethanethioamide]	< 0.5 µg/mL	1 µg/mL (≈ 2.88 µM)	184 to 186 °C
CC(=O)NC[C@H]1CN(c2ccc3c(c2)OCC(C)N3C=O)C(=O)O1 (stereo partly drawn) [Example 16, N-{[(5S)-3-(4-Formyl-3-methyl-3,4-dihydro-2H-1,4-benzoxazin-7-yl)-2-oxo-1,3-oxazolidin-5-yl]methyl}acetamide]	–	–	118 to 121 °C (dec.)
CC(=O)NC[C@H]1CN(c2ccc3c(c2)OC[C@@H](C)N3C=O)C(=O)O1 [Example 17, N-({(5S)-3-[(3R)-4-Formyl-3-methyl-3,4-dihydro-2H-1,4-benzoxazin-7-yl]-2-oxo-1,3-oxazolidin-5-yl}methyl)acetamide]	4 µg/mL (≈ 12 µM)	8 µg/mL (≈ 24 µM)	148 to 151 °C
CC(=S)NC[C@H]1CN(c2ccc3c(c2)OC[C@@H](C)N3C=O)C(=O)O1 [Example 18, N-({(5S)-3-[(3R)-4-Formyl-3-methyl-3,4-dihydro-2H-1,4-benzoxazin-7yl]-2-oxo-1,3-oxazolidin-5-yl}methyl)ethanethioamide]	< 0.5 µg/mL	2 µg/mL (≈ 5.72 µM)	95 to 98 °C
CC(=O)NC[C@H]1CN(c2ccc3c(c2)CC(CF)N3C=O)C(=O)O1 (stereo partly drawn) [Example 19, (S)-N-[[3-[1-Formyl-2-(fluoromethyl)-5-indolinyl]-2-oxo-5-oxazolidinyl]methyl]acetamide]	4 µg/mL (≈ 11.9 µM)	16 µg/mL (≈ 47.7 µM)	132 to 136 °C
CC(=S)NC[C@H]1CN(c2ccc3c(c2)CC(C(C)(C)C)N3C=O)C(=O)O1 (stereo partly drawn) [Example 21, N-[[(5S)-3-[2-(1,1-dimethylethyl)-1-formyl-2,3-dihydro-1H-indol-5-yl]-2-oxo-5-oxazolidinyl]methyl]ethanethioamide]	2 µg/mL (≈ 5.33 µM)	4 µg/mL (≈ 10.7 µM)	219 to 221 °C
CC(=O)NC[C@H]1CN(c2ccc(N3CCN(C(=O)CO)CC3)c(F)c2)C(=O)O1 [eperezolid, reference compound]	4 µg/mL (≈ 10.1 µM)	8 µg/mL (≈ 20.3 µM)	–
CC(=O)NC[C@H]1CN(c2ccc(N3CCOCC3)c(F)c2)C(=O)O1 [linezolid, reference compound]	4 µg/mL (≈ 11.9 µM)	8 µg/mL (≈ 23.7 µM)	–
CN[C@H](CC(C)C)C(=O)N[C@H]1C(=O)N[C@@H](CC(N)=O)C(=O)N[C@H]2C(=O)N[C@H]3C(=O)N[C@H](C(=O)N[C@H](C(=O)O)c4cc(O)cc(O)c4-c4cc3ccc4O)[C@H](O)c3ccc(c(Cl)c3)Oc3cc2cc(c3O[C@@H]2O[C@H](CO)[C@@H](O)[C@H](O)[C@H]2O[C@H]2C[C@](C)(N)[C@H](O)[C@H](C)O2)Oc2ccc(cc2Cl)[C@H]1O [vancomycin, reference compound]	1 µg/mL (≈ 0.69 µM)	> 32 µg/mL	–
